Measured values reported in US20210007356A1, “IMIDE DERIVATIVE AND FUNGICIDE CONTAINING SAID DERIVATIVE AS ACTIVE INGREDIENT” (HOKKO CHEMICAL INDUSTRY CO., LTD., priority 2018, published 2021).
Like-named read-outs stand apart in the source and are kept apart here.

What was measured:
[1] = system: barley powdery mildew fungus (Erysiphe graminis); test: Test Example 2: control effect against barley powdery mildew by foliage application; assay type: in vivo; conditions: wettable powder diluted to 100 ppm, 10 mL per pot foliage spray on barley; inoculated day after; 7 days after inoculation
[2] = system: rice sheath blight fungus (Thanatephorus cucumeris); test: Test Example 6: control effect against rice sheath blight by box treatment (flowable formulation); conditions: flowable 5,000 ppm, 50 mL irrigation of nursery box, paddy rice; inoculated after 3 weeks; 7 days after inoculation
Method: Control value (%)=[1−(lesion height in sprayed plot/lesion height in unsprayed plot)]×100 (d)
By irrigation, 50 mL of a diluted solution (5,000 ppm) of a flowable prepared according to Formulation Example-3 was applied to a 2.5-leaf-stage paddy rice (variety: Asahi) seedling raised using a nursery box ( 1/10 the area of standard nursery box in size: 12 cm×15 cm×height 4 cm) within a greenhouse. The formulation-treated paddy rice seedling was immediately transplanted at 5 seedlings/pot into a pot ( 1/10000 are in size) filled with paddy soil (flooded). After growing for 3 weeks within a greenhouse, a culture of rice sheath blight fungus (Thanatephorus cucumeris) grown in advance on a rice straw medium was inoculated into the root of the formulation-treated paddy rice, and disease development was promoted in an artificial weather chamber at 26° C. (relative humidity=100%). Seven days after the inoculation, the rice sheath blight lesion height (height from the root) was examined, and the control value (%) was calculated according to formula (d). […] This test was performed with three replications, each consisting of one plot and one pot, per one formulation plot, and its average evaluation value of control effect was determined.

[3] = system: rice sheath blight fungus (Thanatephorus cucumeris); test: Test Example 10: control effect against rice sheath blight by water surface application (flowable formulation); conditions: flowable 1,000 ppm, 1 mL dripped in paddy water, inoculated after 1 week, 7 days after inoculation
[4] = system: rice sheath blight fungus (Thanatephorus cucumeris); test: Test Example 8: control effect against rice sheath blight by box treatment (granule); conditions: 5 g of granule on nursery box, paddy rice; inoculated after 3 weeks; 7 days after inoculation
[5] = system: rice blast fungus (Pyricularia grisea); assay type: in vivo; conditions: flowable 1,000 ppm, 1 mL dripped in paddy water, inoculated after 1 week, 7 days after inoculation
[6] = system: rice blast fungus (Pyricularia grisea); assay type: in vivo; conditions: 5 g of granule on nursery box, paddy rice; inoculated after 3 weeks; 7 days after inoculation
[7] = system: rice blast fungus (Pyricularia grisea); assay type: in vivo; conditions: flowable 5,000 ppm, 50 mL irrigation of nursery box, paddy rice; inoculated after 3 weeks; 7 days after inoculation

| Compound | evaluation value of control effect (from control value, lesion area percentage) [1] | evaluation value of control effect (from control value, lesion height) [2] | evaluation value of control effect (from control value, lesion height) [3] | evaluation value of control effect (from control value, lesion height) [4] | evaluation value of control effect (from control value, number of lesions) [5] | evaluation value of control effect (from control value, number of lesions) [6] | evaluation value of control effect (from control value, number of lesions) [7] |
| --- | --- | --- | --- | --- | --- | --- | --- |
| Cn1cc(C(=O)N(C(=O)c2snc(Cl)c2Cl)c2ccccc2-c2ccccc2)c(C(F)F)n1 [1-61] | 4 |  |  |  |  |  |  |
| Cn1cc(C(=O)N(C(=O)c2snc(Cl)c2Cl)c2ccccc2-c2cc(F)c(F)c(F)c2)c(C(F)F)n1 [1-65] | 5 | 5 | 5 | 5 |  |  |  |
| CCC(C)Oc1cccc(N(C(=O)c2cn(C)nc2C(F)F)C(=O)c2snc(Cl)c2Cl)c1C (stereo not drawn) [1-122] |  | 5 | 5 | 5 |  |  |  |
| Cc1nsc(C(=O)N(C(=O)c2cn(C)nc2C(F)F)c2ccccc2C(C)CC(C)C)c1Cl (stereo not drawn) [1-140] | 5 | 5 | 5 | 5 |  |  |  |
| Cc1nnsc1C(=O)N(C(=O)c1c(C)nn(C)c1F)c1ccccc1C(C)CC(C)C (stereo not drawn) [1-158] | 4 |  |  |  | 5 | 5 | 5 |
| Cc1nn(C)c(F)c1C(=O)N(C(=O)c1cc(Cl)nc(Cl)c1)c1ccccc1C(C)CC(C)C (stereo not drawn) [1-266] | 4 |  |  |  |  |  |  |
| Cc1nn(C)c(F)c1C(=O)N(C(=O)c1cccc2nnsc12)c1ccccc1C(C)CC(C)C (stereo not drawn) [1-279] |  | 5 | 5 | 5 |  |  |  |
| CCc1nc(C(F)F)c(C(=O)N(C(=O)c2c(C)nn(C)c2F)c2ccccc2C(C)CC(C)C)s1 (stereo not drawn) [1-292] |  | 5 | 5 | 5 |  |  |  |
| Cc1nc(C(F)(F)F)c(C(=O)N(C(=O)c2cn(C)nc2C(F)F)c2ccccc2C(C)CC(C)C)s1 (stereo not drawn) [1-300] | 5 | 5 | 5 | 5 |  |  |  |
| Cc1nc(C(F)(F)F)c(C(=O)N(C(=O)c2c(C)nn(C)c2F)c2ccccc2C(C)CC(C)C)s1 (stereo not drawn) [1-307] | 4 |  |  |  |  |  |  |
| Cc1nc(C(F)F)c(C(=O)N(C(=O)c2c(C)nn(C)c2F)c2ccccc2C(C)CC(C)C)s1 (stereo not drawn) [1-325] | 4 |  |  |  |  |  |  |
| CC(C)CC(C)c1ccccc1N(C(=O)c1cccnc1C(F)F)C(=O)c1cn(C)nc1C(F)F (stereo not drawn) [1-349] | 4 |  |  |  |  |  |  |
| CC(C)CC(C)c1ccccc1N(C(=O)c1cn(C)nc1C(F)F)C(=O)c1c(C(F)F)nn(C)c1Cl (stereo not drawn) [1-354] | 5 | 5 | 5 | 5 |  |  |  |
| Cn1cc(C(=O)N(C(=O)c2cccc3nnsc23)c2ccccc2-c2cc(F)c(F)c(F)c2)c(C(F)F)n1 [1-369] | 4 | 5 | 5 | 5 |  |  |  |
| Cc1nc(C(F)F)c(C(=O)N(C(=O)c2cn(C)nc2C(F)F)c2ccccc2-c2cc(F)c(F)c(F)c2)s1 [1-372] | 4 | 5 | 5 | 5 |  |  |  |
| Cn1cc(C(=O)N(C(=O)c2cc(Cl)c(Cl)s2)c2ccccc2-c2cc(F)c(F)c(F)c2)c(C(F)F)n1 [1-373] | 4 | 5 | 5 | 5 |  |  |  |
| Cc1nc(C(F)F)c(C(=O)N(C(=O)c2snc(Cl)c2Cl)c2ccccc2-c2cc(F)c(F)c(F)c2)s1 [7-68] | 4 |  |  |  |  |  |  |
| Cc1nc(C(F)F)c(C(=O)N(C(=O)c2snc(Cl)c2Cl)c2c(Br)cc(OC(F)(F)F)cc2Br)s1 [7-129] | 4 |  |  |  |  |  |  |

| Compound | evaluation value of control effect (from control value, lesion area percentage) [1] | evaluation value of control effect (from control value, lesion height) [2] | evaluation value of control effect (from control value, lesion height) [3] | evaluation value of control effect (from control value, lesion height) [4] | evaluation value of control effect (from control value, number of lesions) [5] | evaluation value of control effect (from control value, number of lesions) [6] | evaluation value of control effect (from control value, number of lesions) [7] |
| --- | --- | --- | --- | --- | --- | --- | --- |
| Cc1nc(C(F)(F)F)c(C(=O)N(C(=O)c2scnc2C(F)(F)F)c2c(Br)cc(OC(F)(F)F)cc2Br)s1 [7-284] |  | 5 | 5 | 5 |  |  |  |
| Cc1nc(C(F)F)c(C(=O)N(C(=O)c2snnc2C)c2ccsc2C(C)CC(C)C)s1 (stereo not drawn) [11-20] | 5 |  |  |  |  |  |  |
| Cc1nc(C(F)F)c(C(=O)N(C(=O)c2cccnc2C(F)F)c2ccccc2C(C)CC(C)C)s1 (stereo not drawn) [13-20] | 4 |  |  |  |  |  | 5 |
| Cc1nnsc1C(=O)N(C(=O)c1cn(C)nc1C(F)F)c1cccc2c1C(C)CC2(C)C (stereo not drawn) [25-47] | 4 | 5 | 5 | 5 |  |  |  |
| CCc1nc(C(F)F)c(C(=O)N(C(=O)c2cn(C)nc2C(F)F)c2cccc3c2C(C)CC3(C)C)s1 (stereo not drawn) [25-85] | 4 | 5 | 5 | 5 |  |  |  |
| Cc1nc(C(F)(F)F)c(C(=O)N(C(=O)c2cn(C)nc2C(F)F)c2cccc3c2C(C)OC3(C)C)s1 (stereo not drawn) [25-92] | 4 | 5 | 5 | 5 |  |  |  |
| CC1CC(C)(C)c2cccc(N(C(=O)c3cn(C)nc3C(F)F)C(=O)c3scnc3C(F)(F)F)c21 (stereo not drawn) [25-103] | 4 |  |  |  |  |  |  |
| CC1CC(C)(C)c2cccc(N(C(=O)c3cn(C)nc3C(F)F)C(=O)c3onc(Cl)c3Cl)c21 (stereo not drawn) [25-113] | 4 | 5 | 5 | 5 |  |  |  |
| Cc1nnsc1C(=O)N(C(=O)c1c(C)nn(C)c1Cl)c1cccc2c1C(C)OC2(C)C (stereo not drawn) [25-116] | 4 | 5 | 5 | 5 |  |  |  |
| Cc1nn(C)c(Cl)c1C(=O)N(C(=O)c1cccc2nnsc12)c1cccc2c1C(C)OC2(C)C (stereo not drawn) [25-118] |  |  |  |  | 5 | 5 | 5 |
| Cc1nn(C)c(Cl)c1C(=O)N(C(=O)c1onc(Cl)c1Cl)c1cccc2c1C(C)OC2(C)C (stereo not drawn) [25-124] | 4 | 5 | 5 | 5 |  |  |  |
| Cc1nn(C)c(Cl)c1C(=O)N(C(=O)c1cc(Cl)nc(Cl)c1)c1cccc2c1C(C)OC2(C)C (stereo not drawn) [25-125] | 4 |  |  |  |  |  |  |
| Cc1nc(C(F)F)c(C(=O)N(C(=O)c2snc(Cl)c2Cl)c2cccc3c2C(C)CC3(C)C)s1 (stereo not drawn) [26-8] | 5 | 5 | 5 | 5 |  |  |  |
| Cc1nc(C(F)F)c(C(=O)N(C(=O)c2sc(C)nc2C(F)F)c2cccc3c2C(C)CC3(C)C)s1 (stereo not drawn) [26-77] | 4 | 5 | 5 | 5 |  |  |  |
| Cc1nc(C(F)F)c(C(=O)N(C(=O)c2cc(Cl)c(Cl)s2)c2cccc3c2C(C)CC3(C)C)s1 (stereo not drawn) [26-87] |  |  |  |  | 5 | 5 | 5 |
| Cc1nc(C(F)F)c(C(=O)N(C(=O)c2cc(Cl)no2)c2cccc3c2C(C)CC3(C)C)s1 (stereo not drawn) [26-88] | 4 | 5 | 5 | 5 |  |  |  |
| CC1CC(C)(C)c2cccc(N(C(=O)c3cccnc3C(F)F)C(=O)c3snc(Cl)c3Cl)c21 (stereo not drawn) [27-3] | 5 | 5 | 5 | 5 |  |  |  |
